Values after ≈ are worked out from the molar mass of the structure shown. Active and inactive are the calls of the source. The rule behind the calls is not given here.
Key:
[1] = Hemolytic activity in mouse RBC at 1.95 ug/ml after 1 hr relative to control; format: ADME, cell-based, Erythrocyte; conditions: red blood cells (erythrocytes), read-out: Activity
Candida albicans [2] = experiment: Antifungal activity against fluconazole/ITC-susceptible Candida albicans ATCC MYA-2310 measured after 48 hrs by CLSI M27-A3 protocol based method; format: functional; conditions: ATCC MYA-2310, 48 h
[3] = Selectivity index, ratio of CC50 for human A549 cells to MIC for fluconazole/ITC-resistant Candida albicans ATCC MYA-1237; format: toxicity; conditions: read-out: Selectivity Index
[4] = Selectivity index, ratio of compound concentration showing <20 to <30% hemolysis in mouse RBC to MIC for fluconazole/ITC-resistant Candida albicans ATCC 64124; format: toxicity; conditions: red blood cells (erythrocytes), read-out: Selectivity Index
[5] = Selectivity index, ratio of compound concentration showing <20 to <30% hemolysis in mouse RBC to MIC for fluconazole/ITC-resistant Candida albicans ATCC 90819; format: toxicity; conditions: red blood cells (erythrocytes), read-out: Selectivity Index
Candida albicans [6] = experiment: Antifungal activity against fluconazole/ITC-resistant Candida albicans ATCC MYA-1003 measured after 48 hrs by CLSI M27-A3 protocol based method; format: functional; conditions: ATCC MYA-1003, 48 h
Candida albicans [7] = experiment: Fungicidal activity against fluconazole/ITC-resistant Candida albicans ATCC 10231 assessed as reduction in fungal growth at 0.5 to 2 times MIC incubated for 24 hrs followed by replating on PDA plates measured after 48 hrs Time-Kill assay; format: functional, organism-based
Candida parapsilosis = experiment: Antifungal activity against Candida parapsilosis ATCC 22019 measured after 48 hrs by CLSI M27-A3 protocol based method; format: functional; conditions: Lodderomyces parapsilosis, ATCC 22019, 48 h
Aspergillus flavus = experiment: Antifungal activity against Aspergillus flavus ATCC MYA-3631 measured after 48 hrs by CLSI M38-A2 protocol based method; format: functional; conditions: ATCC MYA-3631, 48 h
[8] = Selectivity index, ratio of compound concentration showing <20 to <30% hemolysis in mouse RBC to MIC for fluconazole/ITC-resistant Candida albicans ATCC MYA-1237; format: toxicity; conditions: mouse red blood cells (RBC), read-out: Selectivity Index
Candida albicans [9] = experiment: Antifungal activity against fluconazole/ITC-resistant Candida albicans ATCC 90819 measured after 48 hrs by CLSI M27-A3 protocol based method; format: functional; conditions: ATCC 90819, 48 h
[10] = Selectivity index, ratio of CC50 for human A549 cells to MIC for Aspergillus nidulans ATCC 38163; format: toxicity; conditions: read-out: Selectivity Index
[11] = Selectivity index, ratio of CC50 for human A549 cells to MIC for Candida parapsilosis ATCC 22019; format: toxicity; conditions: read-out: Selectivity Index
[12] = Hemolytic activity in mouse RBC at 7.8 ug/ml after 1 hr relative to control; format: ADME, cell-based, Erythrocyte; conditions: red blood cells (erythrocytes), read-out: Activity
[13] = Selectivity index, ratio of compound concentration showing <20 to <30% hemolysis in mouse RBC to MIC for Aspergillus nidulans ATCC 38163; format: toxicity; conditions: mouse red blood cells (RBC), read-out: Selectivity Index
[14] = Selectivity index, ratio of compound concentration showing <20 to <30% hemolysis in mouse RBC to MIC for Candida krusei ATCC 6258; format: toxicity; conditions: mouse red blood cells (RBC), read-out: Selectivity Index
[15] = Selectivity index, ratio of compound concentration showing <20 to <30% hemolysis in mouse RBC to MIC for fluconazole/ITC-resistant Candida albicans ATCC MYA-1003; format: toxicity; conditions: mouse red blood cells (RBC), read-out: Selectivity Index
Candida albicans [16] = experiment: Selectivity ratio of MIC50 for antibiofilm activity against fluconazole/ITC-resistant Candida albicans ATCC 10231 assessed as reduction in sessile growth to MIC for fluconazole/ITC-resistant Candida albicans ATCC 10231; format: functional
[17] = Selectivity index, ratio of compound concentration showing <20 to <30% hemolysis in mouse RBC to MIC for Aspergillus terreus ATCC MYA-3633; format: toxicity; conditions: mouse red blood cells (RBC), read-out: Selectivity Index
Aspergillus terreus = experiment: Antifungal activity against Aspergillus terreus ATCC MYA-3633 measured after 48 hrs by CLSI M38-A2 protocol based method; format: functional; conditions: ATCC MYA-3633, 48 h

## C/C(=N\Nc1ccc(F)cc1)c1ccc(-c2ccc(/C(C)=N/Nc3ccc(F)cc3)cc2)cc1
[1]
  hemolysis at 1 h, 1.95 ug/ml: 2.6%
Candida albicans [2]
  MIC: 1.95 µg/mL (≈ 4.29 µM)
[3]
  selectivity ratio: 2.1
[4]
  selectivity ratio: 1 to 32
[5]
  selectivity ratio: 1 to 32
Candida albicans [6]
  MIC: 7.8 µg/mL (≈ 17.2 µM)
Candida albicans [7]
  Activity: Active
Candida parapsilosis
  MIC: 15.6 µg/mL (≈ 34.3 µM)
Aspergillus flavus
  MIC: > 31.3 µg/mL
[8]
  selectivity ratio: 1 to 32
Candida albicans [9]
  MIC: 7.8 µg/mL (≈ 17.2 µM)
[10]
  selectivity ratio: 2.1
[11]
  selectivity ratio: 1.1
[12]
  hemolysis at 1 h, 7.8 ug/ml: 5.9%
[13]
  selectivity ratio: 1 to 32
[14]
  selectivity ratio: 1 to 32
[15]
  selectivity ratio: 1 to 32
Candida albicans [16]
  selectivity ratio: 4
[17]
  selectivity ratio: 1 to 32
Aspergillus terreus
  MIC: > 31.3 µg/mL

Source: ChEMBL document CHEMBL4411307, “N,N'-diaryl-bishydrazones in a biphenyl platform: Broad spectrum antifungal agents” (Eur J Med Chem, 2019)
